TGI and GI50 data for ten molecules are collected here from PubChem BioAssay (NCI).

Some test systems named below: XF 498 CNS; RXF-631 renal; HOP-18 NSCLC; PC-3 prostate; MDA-MB-231 breast; MDA-N; BT-549 breast; 786-0 renal; MCF7 breast; DU-145 prostate; MDA-MB-435; T-47D breast; P388 leukemia; SN12K1 renal; P388/ADR leukemia.
What all share (assay): NCI tumour cell line growth inhibition, 48 h

Molecules are shown by their SMILES.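 Compound exposure: 48 hours, 5 concentrations, 96-well plates. At the GI50, growth is halved. TGI is the concentration that stops growth completely.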

As for `N#Cc1ccc([N+](=O)[O-])cc1NC(N)=S`, the TGI in the assay with XF 498 CNS, in the assay on RXF-631 renal and in the assay with HOP-18 NSCLC was over 100 µM in each case.
`Nc1nc(SCCNC(=O)CCc2ccc(O)c(I)c2)nc2c1ncn2C1OC(CO)C(O)C1O` (configuration not stated) returned a TGI in the assay on XF 498 CNS of over 100 µM.
With `CC(C)CNCCc1ccccn1`, the TGI in the assay with PC-3 prostate, in the assay on MDA-MB-231 breast, in the assay with MDA-N, in the assay on BT-549 breast, in the assay on 786-0 renal and in the assay on MCF7 breast was over 100 µM each time. In addition, the TGI with DU-145 prostate and in the assay with MDA-MB-435 was over 100 µM each time.
In turn, `C1=CC=C2NCCc3cccc(c3)CCNC3=CC=CC=CC3=NCCCCCCN=C2C=C1` displayed a TGI in the assay on RXF-631 renal of 28 µM.
Take `CC1=C(SCCO)C(=O)c2ccccc2C1=O`: the TGI in the assay on T-47D breast worked out at 20.5 µM; in the assay on PC-3 prostate it was 25.1 µM; with MDA-MB-231 breast, 27.4 µM; in the assay on MDA-N it was 15.6 µM; in the assay on BT-549 breast it was 31.7 µM; in the assay with MCF7 breast it was 12.6 µM. Further, the TGI is 29.6 µM in the assay on DU-145 prostate and 23.9 µM in the assay with MDA-MB-435.
Regarding `CC[C@@]1(O)C[C@H](OC2CC(N(C)C)C(OC3CC(O)C(OC4CCC(=O)C(C)O4)C(C)O3)C(C)O2)c2c(cc3c(c2O)C(=O)c2c(O)cccc2C3=O)C1C(=O)OC` (some centres not stated), the TGI in the assay on PC-3 prostate amounted to 1.47 µM; in the assay with XF 498 CNS, 0.294 µM; in the assay with MDA-MB-231 breast, 0.058 µM; in the assay on MDA-N, 0.149 µM; in the assay with DU-145 prostate, 0.446 µM; with HOP-18 NSCLC, 1.85 µM. The GI50 in the assay with XF 498 CNS is 0.0025 µM.
For the molecule `O=c1oc2cc(O)ccc2c2oc3cc(O)ccc3c12`, the TGI in the assay on XF 498 CNS is over 19.8 µM; with P388 leukemia it was over 125 µM; with SN12K1 renal, over 112 µM; with MCF7 breast it was 122 µM; with HOP-18 NSCLC, over 125 µM; with P388/ADR leukemia, over 125 µM.
As for `CC(C)C1=CC2=CC[C@@H]3[C@](C)(CCC[C@@]3(C)C(=O)O)[C@H]2CC1`, the TGI in the assay on XF 498 CNS, with RXF-631 renal and in the assay on HOP-18 NSCLC was over 100 µM in each case.
On to `C=CCn1c(=O)c(Br)nn(CCOCP(=O)(OCC)OCC)c1=O`, for which the TGI in the assay on T-47D breast, with PC-3 prostate, in the assay on MDA-MB-231 breast, in the assay on MDA-N, in the assay with MCF7 breast and with DU-145 prostate was over 100 µM throughout. The same molecule registered a TGI with MDA-MB-435 of over 100 µM.
As to `COc1nc2ccc(CNc3ccc(C(=O)NC(CCC(=O)O)C(=O)O)cc3)cc2nc1OC` (configuration not stated), the TGI in the assay on T-47D breast, in the assay on PC-3 prostate, in the assay on MDA-MB-231 breast, with MDA-N, in the assay on BT-549 breast and in the assay on MCF7 breast was over 100 µM throughout. Further, the TGI in the assay with DU-145 prostate and with MDA-MB-435 was over 100 µM throughout.
